Data on twelve molecules can be found in ChEMBL document CHEMBL5108009, “Positron Emission Tomography (PET) Imaging Tracers for Serotonin Receptors” (J Med Chem, 2022).

Data set [1] can be described thus: Ratio of drug biodistribution in rat hippocampus to cerebellum at 30 mins postinjection. In kind it is ADME, organism-based. To be noted: in vivo, 0.5 h.
Data set [2] concerns the target T1, 5-hydroxytryptamine receptor 1A (Homo sapiens, UniProt P08908).
T1 sequence (P08908 whole entry): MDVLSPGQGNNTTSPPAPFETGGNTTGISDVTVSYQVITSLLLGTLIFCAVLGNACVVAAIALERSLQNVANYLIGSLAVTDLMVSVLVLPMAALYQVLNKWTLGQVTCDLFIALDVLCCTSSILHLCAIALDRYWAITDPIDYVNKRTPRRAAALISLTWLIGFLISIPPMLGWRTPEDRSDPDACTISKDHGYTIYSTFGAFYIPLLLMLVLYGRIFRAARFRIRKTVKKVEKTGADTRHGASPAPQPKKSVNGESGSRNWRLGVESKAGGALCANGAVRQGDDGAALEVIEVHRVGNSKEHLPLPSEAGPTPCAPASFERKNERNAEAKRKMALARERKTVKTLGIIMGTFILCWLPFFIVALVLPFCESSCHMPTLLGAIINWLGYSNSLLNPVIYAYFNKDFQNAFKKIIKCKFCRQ

For a further data set, the target named is D(4) dopamine receptor (Homo sapiens, UniProt P21917). Put plainly: Binding affinity to D4 receptor (unknown origin) assessed as inhibition constant.
Chain of D(4) dopamine receptor (P21917 whole entry): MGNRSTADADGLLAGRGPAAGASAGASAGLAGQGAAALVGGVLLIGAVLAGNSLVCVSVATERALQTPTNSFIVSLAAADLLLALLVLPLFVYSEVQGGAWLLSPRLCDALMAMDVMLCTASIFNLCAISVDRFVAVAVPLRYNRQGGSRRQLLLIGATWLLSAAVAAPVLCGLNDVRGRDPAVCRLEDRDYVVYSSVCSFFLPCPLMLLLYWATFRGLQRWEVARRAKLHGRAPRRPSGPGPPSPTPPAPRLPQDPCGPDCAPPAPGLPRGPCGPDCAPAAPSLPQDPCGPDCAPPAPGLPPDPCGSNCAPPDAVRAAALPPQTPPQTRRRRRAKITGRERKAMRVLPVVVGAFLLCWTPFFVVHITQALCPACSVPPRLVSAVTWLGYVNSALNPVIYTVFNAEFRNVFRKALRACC
Data set [3] concerns the target 5-hydroxytryptamine receptor 7 (Homo sapiens, UniProt P34969). Put plainly: Binding affinity to 5-HT7 receptor (unknown origin) assessed as inhibition constant.
The target of data set [4] is T2, Alpha-1A adrenergic receptor (Homo sapiens, UniProt P35348).
T2 sequence (P35348 whole entry): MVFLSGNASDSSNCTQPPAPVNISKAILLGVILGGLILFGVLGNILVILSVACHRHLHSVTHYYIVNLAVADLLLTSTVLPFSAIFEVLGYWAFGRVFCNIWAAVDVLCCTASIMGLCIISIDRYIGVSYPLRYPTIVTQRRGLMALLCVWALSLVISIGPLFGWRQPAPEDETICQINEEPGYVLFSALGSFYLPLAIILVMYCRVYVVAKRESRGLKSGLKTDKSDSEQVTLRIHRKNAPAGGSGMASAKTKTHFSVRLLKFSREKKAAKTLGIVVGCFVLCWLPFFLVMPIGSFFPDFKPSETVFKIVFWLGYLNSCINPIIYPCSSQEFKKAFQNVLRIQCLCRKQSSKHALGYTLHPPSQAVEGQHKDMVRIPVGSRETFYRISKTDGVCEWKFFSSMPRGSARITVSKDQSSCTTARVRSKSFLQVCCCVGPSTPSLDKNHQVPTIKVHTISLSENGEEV
Put plainly: Binding affinity to alpha 1A adrenergic receptor (unknown origin) assessed as inhibition constant.

Data set [5] in a line: Drug uptake in cynomolgus monkey brain treated with WAY-100635 followed by compound 878 Ci/mmol, iv measured at 2.5 mins postinjection by PET imaging relative to control. Type of data set: ADME, organism-based, Macaca fascicularis. To be noted: in vivo.
Data set [6] addresses T1, 5-hydroxytryptamine receptor 1A. Put plainly: Displacement of [3H]-8-OH-DPAT from 5HT1A receptor (unknown origin). In general terms: Loss of bound radioactivity is the signal in a displacement assay; it reports binding, not function.
Data set [7] has the same target. Put plainly: Binding affinity to 5-HT1A receptor (unknown origin) assessed as inhibition constant by scintillation spectroscopic analysis.
Data set [8] in a line: Ratio of drug uptake in baboon insula to cerebellum. In kind it is ADME, tissue-based, Papio. To be noted: in vivo.
A short description of data set [9]: Ratio of drug uptake in baboon cingulate cortex to cerebellum. Type of data set: ADME, tissue-based, Papio. To be noted: in vivo.
Data set [10] can be described thus: Ratio of drug uptake in baboon hippocampus to cerebellum. In kind it is ADME, tissue-based, Papio. To be noted: in vivo.
A short description of data set [11]: Displacement of [3H]-8-OH-DPAT from bovine hippocampal tissue 5HT1A receptor by competitive binding assay. In kind it is tissue-based, Bos taurus, Hippocampus.
The nature of data set [12]: Drug uptake in cynomolgus monkey brain treated with WAY-100635 followed by compound 230 Ci/mmol, iv measured at 2.5 mins postinjection by PET imaging relative to control. In kind it is ADME, organism-based, Macaca fascicularis. To be noted: in vivo.
A short description of data set [13]: Ratio of drug uptake in Rhesus monkey temporal cortex to cerebellum. In kind it is ADME, tissue-based, Macaca mulatta. Conditions: in vivo.
Data set [14] can be described thus: Ratio of drug uptake in Rhesus monkey frontal cortex to cerebellum. In kind it is ADME, tissue-based, Macaca mulatta, Brain frontal cortex/cerebellum. To be noted: in vivo.
The nature of data set [15]: Drug metabolism in Rhesus monkey plasma assessed as unmetabolized compound after 3 hrs by TLC analysis. In kind it is ADME, cell-free, Macaca mulatta. Conditions: read-out: Stability.
A short description of data set [16]: Ratio of drug uptake in Rhesus monkey raphe to cerebellum. In kind it is ADME, tissue-based, Macaca mulatta. Conditions: in vivo.
The target of data set [17] is T2, Alpha-1A adrenergic receptor. Put plainly: Inhibition of alpha 1A adrenergic receptor (unknown origin).
Data set [18] in a line: Ratio of drug uptake in monkey anterior cingulate cortex to cerebellum. Conditions: rhesus monkey, in vivo. Type of data set: ADME, tissue-based, Macaca mulatta.
A short description of data set [19]: Ratio of drug uptake in monkey hippocampus to cerebellum. In kind it is ADME, tissue-based, Macaca mulatta. Conditions: rhesus monkey, in vivo.
Data set [20] in a line: Drug uptake in cynomolgus monkey frontal cortex administered iv measured as percentage of injected dose by PET imaging relative to control. In kind it is ADME, organism-based, Macaca fascicularis. Conditions: in vivo.
The nature of data set [21]: Binding affinity to pig 5-HT1B receptor (unknown origin) assessed as inhibition constant.

Chain of 5-hydroxytryptamine receptor 7 (P34969 whole entry): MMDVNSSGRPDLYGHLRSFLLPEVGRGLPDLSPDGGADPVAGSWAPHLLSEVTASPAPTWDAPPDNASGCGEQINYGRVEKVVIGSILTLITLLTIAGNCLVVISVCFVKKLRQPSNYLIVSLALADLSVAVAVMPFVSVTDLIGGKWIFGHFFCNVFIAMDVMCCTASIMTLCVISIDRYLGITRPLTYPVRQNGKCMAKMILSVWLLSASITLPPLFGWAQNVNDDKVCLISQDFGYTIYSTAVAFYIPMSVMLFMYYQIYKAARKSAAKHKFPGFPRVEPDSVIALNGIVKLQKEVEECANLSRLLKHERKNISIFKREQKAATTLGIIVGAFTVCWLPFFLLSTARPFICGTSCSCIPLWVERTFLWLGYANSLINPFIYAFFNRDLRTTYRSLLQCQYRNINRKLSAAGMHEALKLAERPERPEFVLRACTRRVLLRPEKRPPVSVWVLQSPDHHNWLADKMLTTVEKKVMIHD

Broadly, the Ki is the dissociation constant of the complex between target and ligand, obtained from inhibition or displacement. As to `COc1ccccc1N1CCN(CCN(C(=O)c2ccc([18F])cc2)c2ncccn2)CC1`, the Ratio in data set [1] is on record as 5.5. The Ki in [2] is under 1 nM.

For `COc1cccc(N2CCN(CCCCn3ncc(=O)n(C)c3=O)CC2)c1`, the Ki worked out at 21.8 nM at D(4) dopamine receptor, 12.9 nM in data set [3], 0.15 nM in [2] and 6.75 nM in data set [4].

For the molecule `CC1(C(=O)N(CCN2CCN(c3ccccc3O[11CH3])CC2)c2ccccn2)CCCCC1`, the Ki in data set [2] was determined as 2.3 nM. For the same molecule, in [5], the Drug uptake is given as 3%.

`CSc1cccc(C(=O)NC[C@@H]2CCCN2CCc2ccccc2)c1` returned a Ki in data set [6] of 4.3 nM.

For the molecule `CNc1nc(CNCC2(F)CCN(C(=O)c3ccc(F)c(Cl)c3)CC2)ccc1C`, the Ki in [7] is 0.04 nM.

Regarding `Cn1c(=O)cnn(CCCCN2CCN(c3ccccc3O[11CH3])CC2)c1=O`, the Ratio in data set [8], in data set [9] and in data set [10] was over 4.7 in each case.

In the case of `[11CH3]O[C@H]1CC[C@@H](C(=O)N(CCN2CCN(c3ccccc3O)CC2)c2ccccn2)CC1`, in data set [11], affinity was put at a Ki of 24 nM.

As for `COc1ccccc1N1CCN(CC(C)N(c2ccccn2)[11C](=O)C2CCCCC2)CC1` (racemic), the Ki in data set [2] was 0.91 nM. Besides, the Drug uptake in [12] turned out to be 4.8%.

In the case of `COc1ccccc1N1CCN(CCN(C(=O)C2CCC(C[18F])CC2)c2ccccn2)CC1` (stereo not given), the Ratio in [13] is on record as 10; in data set [14], 9; in data set [16] it was 3.3. Besides, the remaining at 3 h in data set [15] came to 30%.

The IC50 is the concentration at which inhibition is half-maximal. In turn, `[11CH3]Oc1cccc2c1CCCC2CCCN1CCN(c2ccccc2)CC1` (stereo not given) came in with an IC50 in [17] of 43 nM.

As for `O=C(NCCN1CCN(c2cccc3c2OCCO3)CC1)c1ccc([18F])cc1`, the Ratio in data set [18] and in data set [19] was 1.7 in each case.

As for `CCC(=O)N1CCN(c2ccc(NC(=O)c3cc(=O)c4cc(F)cc(N5CCN([11CH3])CC5)c4o3)cc2)CC1`, the Drug uptake in [20] was found to be 0.7%. In addition, the Ki in [21] was determined as 2 nM.
